Experimental data from PMC5428567, “Pentameric ligand-gated ion channels exhibit distinct transmembrane domain archetypes for folding/expression and function” (Scientific Reports, 2017).

Assays:
ELIC S271A = molecular target: T1, ELIC S271A (Dickeya chrysanthemi, UniProt P0C7B7, S271A); assay: TEVC cysteamine-induced current, ELIC S271A; format: cell-based; conditions: Xenopus laevis oocytes; ±SD; n=8
T1 construct: expressed in transfected cells; host or cells: Xenopus laevis oocytes injected with cRNA
Text: (§1) To examine how different physical interactions at the M4-M1/M3 interface in both GLIC and ELIC (Fig. 1) influence function, we mutated each residue to Ala, and characterized how each mutation influenced agonist-induced channel gating using two-electrode voltage clamp electrophysiology. Both GLIC and ELIC are cation-selective ion channels that transiently gate open in response to agonist binding, although GLIC responds to protons while ELIC responds to primary amines, such as cysteamine, [34].
(§2) Stage V–VI oocytes were collected as previously described, injected with cRNA, and allowed to incubate one to four days at 16 °C in ND96 + buffer (5 mM HEPES, 96 mM NaCl, 2 mM KCl, 1 mM MgCl2, 1 mM CaCl2, and 2 mM Pyruvate). Whole cell currents were recorded using a two-electrode voltage clamp apparatus (OC-725C oocyte clamp; Holliston, MA). For GLIC, whole cell currents were recorded from injected oocytes (3–20 ng cRNA) immersed in MES buffer (140 mM NaCl, 2.8 mM KCl, 2 mM MgCl2, and 10 mM MES). Currents through the plasma membrane in response to pH jumps (pH 7.3 down to the indicated pH values) were measured with the transmembrane voltage clamped at voltages between −20 mV and −40 mV depending on the level of expression, typically −20 mV. […]

ELIC L295A = tested on: ELIC L295A; set-up: method as in Henault et al.[9], [18], [29]; conditions: Xenopus laevis oocytes; ±SD; n=8; ref Henault et al.[9], [18], [29]; cited from earlier work
ELIC F307A = tested on: ELIC F307A; set-up: method as in Henault et al.[9], [18], [29]; conditions: Xenopus laevis oocytes; ±SD; n=8; ref Henault et al.[9], [18], [29]; cited from earlier work
ELIC I208A = molecular target: T2, ELIC I208A (Dickeya chrysanthemi, UniProt P0C7B7, I208A); assay: TEVC cysteamine-induced current, ELIC I208A; format: cell-based; conditions: Xenopus laevis oocytes; ±SD; n=8
T2 construct: expressed in transfected cells; host or cells: Xenopus laevis oocytes injected with cRNA
Text: as §1, §2

ELIC I296A = tested on: ELIC I296A; set-up: method as in Henault et al.[9], [18], [29]; conditions: Xenopus laevis oocytes; ±SD; n=10; ref Henault et al.[9], [18], [29]; cited from earlier work
ELIC S271A + F307A = molecular target: T3, ELIC S271A + F307A (Dickeya chrysanthemi, UniProt P0C7B7, F307A/S271A); assay: TEVC cysteamine-induced current, ELIC S271A + F307A; format: cell-based; conditions: Xenopus laevis oocytes; ±SD; n=8
T3 construct: expressed in transfected cells; host or cells: Xenopus laevis oocytes injected with cRNA (pTLN plasmid)
Text: as §1, §2

ELIC I319A = tested on: ELIC I319A; set-up: method as in Henault et al.[9], [18], [29]; conditions: Xenopus laevis oocytes; ±SD; n=11; ref Henault et al.[9], [18], [29]; cited from earlier work
ELIC R300A = tested on: ELIC R300A; set-up: method as in Henault et al.[9], [18], [29]; conditions: Xenopus laevis oocytes; ±SD; n=11; ref Henault et al.[9], [18], [29]; cited from earlier work
ELIC F303A = tested on: ELIC F303A; set-up: method as in Henault et al.[9], [18], [29]; conditions: Xenopus laevis oocytes; ±SD; n=10; ref Henault et al.[9], [18], [29]; cited from earlier work
ELIC G311A = tested on: ELIC G311A; set-up: method as in Henault et al.[9], [18], [29]; conditions: Xenopus laevis oocytes; ±SD; n=11; ref Henault et al.[9], [18], [29]; cited from earlier work
ELIC V260A = molecular target: T4, ELIC V260A (Dickeya chrysanthemi, UniProt P0C7B7, V260A); assay: TEVC cysteamine-induced current, ELIC V260A; format: cell-based; conditions: Xenopus laevis oocytes; ±SD; n=8
T4 construct: expressed in transfected cells; host or cells: Xenopus laevis oocytes injected with cRNA
Text: as §1, §2

ELIC S271A + F303A = molecular target: T5, ELIC S271A + F303A (Dickeya chrysanthemi, UniProt P0C7B7, F303A/S271A); assay: TEVC cysteamine-induced current, ELIC S271A + F303A; format: cell-based; conditions: Xenopus laevis oocytes; ±SD; n=8
T5 construct: expressed in transfected cells; host or cells: Xenopus laevis oocytes injected with cRNA (pTLN plasmid)
Text: as §1, §2

ELIC Q263A = molecular target: T6, ELIC Q263A (Dickeya chrysanthemi, UniProt P0C7B7, Q263A); assay: TEVC cysteamine-induced current, ELIC Q263A; format: cell-based; conditions: Xenopus laevis oocytes; ±SD; n=8
T6 construct: expressed in transfected cells; host or cells: Xenopus laevis oocytes injected with cRNA
Text: as §1, §2

ELIC V315A = tested on: ELIC V315A; set-up: method as in Henault et al.[9], [18], [29]; conditions: Xenopus laevis oocytes; ±SD; n=9; ref Henault et al.[9], [18], [29]; cited from earlier work
ELIC I310A = tested on: ELIC I310A; set-up: method as in Henault et al.[9], [18], [29]; conditions: Xenopus laevis oocytes; ±SD; n=10; ref Henault et al.[9], [18], [29]; cited from earlier work
ELIC L278A = molecular target: T7, ELIC L278A (Dickeya chrysanthemi, UniProt P0C7B7, L278A); assay: TEVC cysteamine-induced current, ELIC L278A; format: cell-based; conditions: Xenopus laevis oocytes; ±SD; n=8
T7 construct: expressed in transfected cells; host or cells: Xenopus laevis oocytes injected with cRNA (pTLN plasmid)
Text: as §1, §2

ELIC L204A = molecular target: T8, ELIC L204A (Dickeya chrysanthemi, UniProt P0C7B7, L204A); assay: TEVC cysteamine-induced current, ELIC L204A; format: cell-based; conditions: Xenopus laevis oocytes; ±SD; n=8
T8 construct: expressed in transfected cells; host or cells: Xenopus laevis oocytes injected with cRNA
Text: as §1, §2

ELIC I215A = molecular target: T9, ELIC I215A (Dickeya chrysanthemi, UniProt P0C7B7, I215A); assay: TEVC cysteamine-induced current, ELIC I215A; format: cell-based; conditions: Xenopus laevis oocytes; ±SD; n=8
T9 construct: expressed in transfected cells; host or cells: Xenopus laevis oocytes injected with cRNA
Text: as §1, §2

T8 sequence (P0C7B7 whole entry L204A): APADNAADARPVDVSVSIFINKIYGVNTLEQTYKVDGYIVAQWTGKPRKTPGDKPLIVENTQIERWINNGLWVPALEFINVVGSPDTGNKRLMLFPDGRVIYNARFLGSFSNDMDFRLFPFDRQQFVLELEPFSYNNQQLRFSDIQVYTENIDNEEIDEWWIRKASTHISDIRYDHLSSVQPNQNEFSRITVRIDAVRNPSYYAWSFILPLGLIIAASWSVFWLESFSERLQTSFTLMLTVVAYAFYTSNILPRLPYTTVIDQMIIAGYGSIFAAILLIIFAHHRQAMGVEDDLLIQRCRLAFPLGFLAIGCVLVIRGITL
T3 sequence (P0C7B7 whole entry S271A/F307A): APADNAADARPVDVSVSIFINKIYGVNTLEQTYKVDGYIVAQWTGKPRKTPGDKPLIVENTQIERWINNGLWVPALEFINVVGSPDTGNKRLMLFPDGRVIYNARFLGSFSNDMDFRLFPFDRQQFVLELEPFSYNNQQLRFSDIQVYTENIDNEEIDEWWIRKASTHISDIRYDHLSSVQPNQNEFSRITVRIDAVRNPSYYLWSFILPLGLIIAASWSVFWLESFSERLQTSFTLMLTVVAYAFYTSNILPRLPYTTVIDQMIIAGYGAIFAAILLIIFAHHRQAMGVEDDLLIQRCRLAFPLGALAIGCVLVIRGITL
T2 sequence (P0C7B7 whole entry I208A): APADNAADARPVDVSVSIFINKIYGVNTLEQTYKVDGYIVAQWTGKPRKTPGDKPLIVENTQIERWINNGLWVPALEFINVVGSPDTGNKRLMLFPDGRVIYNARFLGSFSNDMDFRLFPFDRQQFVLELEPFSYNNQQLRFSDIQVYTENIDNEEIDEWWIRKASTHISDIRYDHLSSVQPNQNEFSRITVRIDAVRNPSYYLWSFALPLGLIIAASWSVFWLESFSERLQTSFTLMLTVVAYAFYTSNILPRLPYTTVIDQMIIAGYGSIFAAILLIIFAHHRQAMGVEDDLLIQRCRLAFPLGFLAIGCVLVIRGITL
T7 sequence (P0C7B7 whole entry L278A): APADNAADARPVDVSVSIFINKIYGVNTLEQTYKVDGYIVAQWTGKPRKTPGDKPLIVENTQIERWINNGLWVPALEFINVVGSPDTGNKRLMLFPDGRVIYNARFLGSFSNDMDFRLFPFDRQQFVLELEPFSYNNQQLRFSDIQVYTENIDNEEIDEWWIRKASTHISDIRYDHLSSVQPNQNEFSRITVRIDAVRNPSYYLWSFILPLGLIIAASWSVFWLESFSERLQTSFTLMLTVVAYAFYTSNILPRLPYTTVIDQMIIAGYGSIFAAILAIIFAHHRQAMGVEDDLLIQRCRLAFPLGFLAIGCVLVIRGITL
T9 sequence (P0C7B7 whole entry I215A): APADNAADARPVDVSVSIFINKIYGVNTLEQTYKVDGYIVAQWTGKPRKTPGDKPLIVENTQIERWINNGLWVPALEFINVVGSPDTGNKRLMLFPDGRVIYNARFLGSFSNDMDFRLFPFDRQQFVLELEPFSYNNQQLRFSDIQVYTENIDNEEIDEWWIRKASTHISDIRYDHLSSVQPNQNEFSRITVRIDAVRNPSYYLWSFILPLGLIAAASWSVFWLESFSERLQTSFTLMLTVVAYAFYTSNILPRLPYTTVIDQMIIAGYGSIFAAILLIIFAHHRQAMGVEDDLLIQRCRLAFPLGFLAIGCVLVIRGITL
T4 sequence (P0C7B7 whole entry V260A): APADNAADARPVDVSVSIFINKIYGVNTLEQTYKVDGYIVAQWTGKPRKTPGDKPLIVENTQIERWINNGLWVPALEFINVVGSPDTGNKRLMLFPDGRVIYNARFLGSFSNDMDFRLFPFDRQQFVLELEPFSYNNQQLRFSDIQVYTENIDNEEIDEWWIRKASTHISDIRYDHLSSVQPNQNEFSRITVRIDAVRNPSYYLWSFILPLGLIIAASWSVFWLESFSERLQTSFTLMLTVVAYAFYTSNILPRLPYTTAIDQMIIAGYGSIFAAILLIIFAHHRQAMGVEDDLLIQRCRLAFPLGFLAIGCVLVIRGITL
T5 sequence (P0C7B7 whole entry S271A/F303A): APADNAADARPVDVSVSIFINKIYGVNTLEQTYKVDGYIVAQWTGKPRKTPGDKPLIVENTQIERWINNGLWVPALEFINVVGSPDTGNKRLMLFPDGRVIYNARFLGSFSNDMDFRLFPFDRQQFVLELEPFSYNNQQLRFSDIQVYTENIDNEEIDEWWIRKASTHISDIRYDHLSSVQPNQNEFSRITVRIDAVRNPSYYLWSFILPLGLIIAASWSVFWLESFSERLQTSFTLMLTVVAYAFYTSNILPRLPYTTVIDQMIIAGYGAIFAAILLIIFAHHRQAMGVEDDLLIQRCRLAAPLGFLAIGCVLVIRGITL
T6 sequence (P0C7B7 whole entry Q263A): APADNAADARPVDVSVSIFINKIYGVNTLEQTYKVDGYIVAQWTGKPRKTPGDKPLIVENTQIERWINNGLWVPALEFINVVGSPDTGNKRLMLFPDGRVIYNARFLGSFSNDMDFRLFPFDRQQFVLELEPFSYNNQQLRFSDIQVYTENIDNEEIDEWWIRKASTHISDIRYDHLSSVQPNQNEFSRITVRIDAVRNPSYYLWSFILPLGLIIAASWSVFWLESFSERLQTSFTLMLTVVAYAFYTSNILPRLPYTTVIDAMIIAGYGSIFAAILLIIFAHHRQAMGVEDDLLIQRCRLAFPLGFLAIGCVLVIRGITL
T1 sequence (P0C7B7 whole entry S271A): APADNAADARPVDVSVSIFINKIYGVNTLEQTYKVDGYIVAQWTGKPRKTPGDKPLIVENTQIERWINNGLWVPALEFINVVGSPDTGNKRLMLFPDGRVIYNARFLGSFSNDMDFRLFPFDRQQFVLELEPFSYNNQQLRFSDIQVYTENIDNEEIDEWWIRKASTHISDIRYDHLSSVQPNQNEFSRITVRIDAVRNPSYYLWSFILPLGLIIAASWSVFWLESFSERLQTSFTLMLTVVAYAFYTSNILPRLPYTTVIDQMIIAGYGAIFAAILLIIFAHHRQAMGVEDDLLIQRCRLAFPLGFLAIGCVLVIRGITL

## NCCS [cysteamine]
ELIC S271A
  −logEC50: 3.09 ± 0.03
ELIC L295A
  EC50: 500 ± 100 µM
  −logEC50: 3.30 ± 0.09
ELIC F307A
  EC50: 570 ± 90 µM
  −logEC50: 3.24 ± 0.07
ELIC I208A
  EC50: 250 ± 50 µM
  −logEC50: 3.60 ± 0.09
ELIC I296A
  EC50: 270 ± 30 µM
  −logEC50: 3.57 ± 0.05
ELIC S271A + F307A
  EC50: 770 ± 90 µM
  −logEC50: 3.11 ± 0.05
ELIC I319A
  EC50: 860 ± 160 µM
  −logEC50: 3.06 ± 0.08
ELIC R300A
  EC50: 400 ± 50 µM
  −logEC50: 3.40 ± 0.05
ELIC F303A
  EC50: 190 ± 70 µM
  −logEC50: 3.73 ± 0.17
ELIC G311A
  EC50: 510 ± 100 µM
  −logEC50: 3.29 ± 0.09
ELIC V260A
  EC50: 460 ± 50 µM
  −logEC50: 3.34 ± 0.05
ELIC S271A + F303A
  EC50: 620 ± 130 µM
  −logEC50: 3.21 ± 0.09
ELIC Q263A
  EC50: 580 ± 40 µM
  −logEC50: 3.24 ± 0.03
ELIC V315A
  EC50: 600 ± 80 µM
  −logEC50: 3.22 ± 0.06
ELIC I310A
  EC50: 880 ± 90 µM
  −logEC50: 3.05 ± 0.04
ELIC L278A
  EC50: 1070 ± 100 µM
  −logEC50: 2.97 ± 0.04
ELIC L204A
  EC50: 3550 ± 310 µM
  −logEC50: 2.45 ± 0.04
ELIC I215A
  EC50: 320 ± 40 µM
  −logEC50: 3.49 ± 0.05
